Results as given in article PMC10060354, “Discovery of a small molecule ligand of FRS2 that inhibits invasion and tumor growth” (Cellular Oncology, 2022).

Key:
DAOY cells = test: SIA, EGF-induced cell invasion; type: cell-based, human; conditions: 10 µM
Experimental: (§1) 1000—2500 cells/well in 100 μl were seeded in 96 well Corning® Spheroid microplate (CLS4520, Sigma-Aldrich) or in cell-repellent 96 well microplate (650,790, Greiner Bio-one). SIA and analysis was performed as described before. In brief: After spheroid formation (24 – 72 h after seeding), 70 µl medium was removed and replaced with the collagen mixture (2.5 mg/ml Pure Col Collagen I (Advanced Biomatrix)), DMEM 1x (from 10 × stock, Sigma, D2429) and 0.4% Sodium bicarbonate (Sigma, S8761)), resulting in a final collagen concentration of 1.75 mg/ml. Embedded spheroids were stimulated with bFGF (100 ng/ml if not otherwise stated), HGF (30 ng /ml) or EGF (20 ng/ml) and distance of invaded cells quantified 24 – 48 h after embedding. Compounds and BGJ398 were added in Dimethylsulfoxid (DMSO) and corresponding DMSO concentrations were used in control samples.

human cancer cell lines = test: CellTiter-Glo viability (2D culture or 3D spheroids), cell line panel; type: cell-based; conditions: for reduction of viability: DAOY, AGS and HCT116 cells, between 2.7 and 20 µM, 48 h
Experimental: Cell viability was determined using CellTiter-Glo® 2D or 3D cell viability assays (#G9242, #G9682, Promega). 500 cells/25 µl were seeded in flat bottom (#781,091, Greiner bio-one) or U-low adhesion (#4516, Corning) 384-well plate, 24 h prior to treatment. Increasing concentrations of compounds are deposited on cells using a HP Digital Drug Dispenser with DMSO total volume normalization. After 48 h, the CellTiter-Glo® 2D or 3D reagent was added (volume/volume) following manufacturer’s instructions. Plates were incubated at RT (room temperature) under agitation for 30 min and luminescence representing the number of viable cells was quantified with a Cytation 3 imaging reader (BioTek®). Experiments were performed independently three times with three technical replicas each.

AGS = test: SIA, collagen I invasion; type: cell-based; conditions: Homo sapiens
Experimental: as §1

SKOV3 = test: SIA, collagen I invasion; type: cell-based; conditions: Homo sapiens
Experimental: as §1

FRS2_PTB = biological target: T1, FRS2_PTB (Homo sapiens, UniProt Q8WU20); test: nano differential scanning fluorimetry (nanoDSF); type: binding; conditions: 500 μM ligand
T1 construct: FRS2-PTB 11-140aa; 6xHis; made in house; host or cells: E. coli BL21 (DE3)
T1 sequence (Q8WU20 11-140): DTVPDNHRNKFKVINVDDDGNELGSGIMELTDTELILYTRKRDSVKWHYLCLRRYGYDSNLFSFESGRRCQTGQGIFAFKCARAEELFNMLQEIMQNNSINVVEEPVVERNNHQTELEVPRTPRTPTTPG
Experimental: Assay establishment and pilot nanoDSF experiments were performed with a Tycho® system. Each experiment was performed by mixing the protein and ligand of interest at a 1:1 ratio and subsequent incubation for 15–30 min at room temperature. Controls of protein alone and ligand alone in identical buffer compositions as for the complex were measured accordingly. The temperature gradient ranged from 35 to 95 °C, and the heating rate was 30 °C/min. Inflection temperatures TI were calculated from the first derivative of the spectra obtained at the ratio of the signals at 350 nm to those at 330 nm. ΔTI of a complex was calculated as following: ΔTI,complex = TI,complex – TI,protein.
The in-built software version 1.1.5.668 (NanoTemper Technologies, Munich, Germany) and Microsoft Office Excel 365 (Microsoft Corp., Seattle, USA) was used for data analysis. Data was plotted with GraphPad Prism vers. 8.3.0 (GraphPad Software, San Diego, USA).
Purified FRS2_PTB or GB1_FRS2_PTB protein tagged with 6 × Histidine residues and the B1 immunoglobulin binding domain of the streptococcal protein G (GB1) were diluted in the protein buffer (100 mM sodium phosphate, 50 mM NaCl, 0.5 mM EDTA, 50 mM arginine, 1 mM TCEP, pH 7.0) to 30 μM, GB-1 to 40 μM. FGFR_PEP, compounds or paracetamol (PARA) as negative control were dissolved at 1 mM in the protein buffer supplemented with 10% DMSO. Compound and protein were mixed at 1:1 volume ratio yielding a final concentration of 15 μM and 20 μM for FRS2_PTB/GB1_FRS2_PTB and GB1, respectively, as well as 500 μM for FGFR_PEP or compounds. The mixture was incubated for 15 min. Each compound was measured in triplicates. Protein controls were measured in six replicates in the beginning. The quality of the screen was assessed by the Z-factor. nanoDSF validation studies were performed on a Prometheus® system in high sensitivity capillaries. Samples were heated with 1 °C/min from 20 to 95 °C. Each compound was measured in triplicates. GB1-FRS2_PTB and GB1 were diluted in the protein buffer (100 mM sodium phosphate, 50 mM NaCl, 0.5 mM EDTA, 50 mM arginine, 1 mM TCEP, pH 7.0) to 30 μM. Compounds 3.3, 3.4, 3.18 as well as the 3.18 analogues were dissolved in 100% DMSO at 50 or 100 mM and further diluted to 1 mM with a final DMSO-concentration of 100%. FGFR_PEP was dissolved at 1 mM in the protein buffer supplemented with 10% DMSO. Compound and protein were mixed at 1:1 volume ratio yielding final concentrations of 15 μM protein and 500 μM for the compounds. FGFR_PEP was measured against both GB1-FRS2_PTB and GB1, all other compounds only against GB1-FRS2_PTB. The mixture was incubated for 15 min before measurement. The data was analyzed for both the ratio of signals at 330 and 350 nm and at 350 nm alone. […]

GB1-FRS2_PTB:FGFR_PEP = biological target: T2, GB1-FRS2_PTB:FGFR_PEP (Homo sapiens, UniProt Q8WU20); test: nanoDSF competition assay with the FGFR peptide; type: binding; conditions: PTB domain:FGFR peptide 1:5; 500 μM compound
T2 construct: FRS2-PTB 11-140aa; 6xHis (N); made in house; host or cells: E. coli BL21 (DE3) for the protein
T2 sequence (Q8WU20 11-140): T1 sequence (Q8WU20 11-140)
Experimental: Purified FRS2_PTB or GB1_FRS2_PTB protein tagged with 6 × Histidine residues and the B1 immunoglobulin binding domain of the streptococcal protein G (GB1) were diluted in the protein buffer (100 mM sodium phosphate, 50 mM NaCl, 0.5 mM EDTA, 50 mM arginine, 1 mM TCEP, pH 7.0) to 30 μM, GB-1 to 40 μM. FGFR_PEP, compounds or paracetamol (PARA) as negative control were dissolved at 1 mM in the protein buffer supplemented with 10% DMSO. Compound and protein were mixed at 1:1 volume ratio yielding a final concentration of 15 μM and 20 μM for FRS2_PTB/GB1_FRS2_PTB and GB1, respectively, as well as 500 μM for FGFR_PEP or compounds. The mixture was incubated for 15 min. Each compound was measured in triplicates. Protein controls were measured in six replicates in the beginning. The quality of the screen was assessed by the Z-factor. nanoDSF validation studies were performed on a Prometheus® system in high sensitivity capillaries. Samples were heated with 1 °C/min from 20 to 95 °C. Each compound was measured in triplicates. GB1-FRS2_PTB and GB1 were diluted in the protein buffer (100 mM sodium phosphate, 50 mM NaCl, 0.5 mM EDTA, 50 mM arginine, 1 mM TCEP, pH 7.0) to 30 μM. Compounds 3.3, 3.4, 3.18 as well as the 3.18 analogues were dissolved in 100% DMSO at 50 or 100 mM and further diluted to 1 mM with a final […]. FGFR_PEP was dissolved at 1 mM in the protein buffer supplemented with 10% DMSO. Compound and protein were mixed at 1:1 volume ratio yielding final concentrations of 15 μM protein and 500 μM for the compounds. FGFR_PEP was measured against both GB1-FRS2_PTB and GB1, all other compounds only against GB1-FRS2_PTB. The mixture was incubated for 15 min before measurement. The data was analyzed for both the ratio of signals at 330 and 350 nm and at 350 nm alone. For the competition assays, the PTB domain and the FGFR peptide were mixed at a 1:5 ratio, and ligand competition was assayed in the presence of 500 μM compound.

[1] = Solubility at the concentration required for the biophysical assays; type: physicochemical; conditions: 5% DMSO

nanoDSF shift of the inflection point of the melting curve (ΔTm) (FRS2_PTB) [°C] | Compound | effect on EGF-induced cell invasion (result in words) (DAOY cells) | reduction of viability (human cancer cell lines) | nanoDSF competition with FGFR peptide (result in words) (GB1-FRS2_PTB:FGFR_PEP) | solubility for biophysical assays (result in words) [1] | also measured
 | N#Cc1c(Cl)cc(O)c2c1C1C=CCC1C(c1ccc(Cl)cc1)N2 (stereo not drawn) [Compound 14] | only moderately reduced | more than 50% |  |  | 
> 2.0 | CC(C)C[C@@H](CO)NCc1cc(O)c2cc(F)ccc2n1 [Compound 3.14] |  |  |  |  | inhibition at 10 µM (AGS; 10 µM): ~50%; inhibition at 10 µM (SKOV3; SK-OV-3, 10 µM): ~50%
 | O=[N+]([O-])c1c(Cl)cc(O)c2c1C1C=CCC1C(c1ccc(Cl)cc1)N2 (stereo not drawn) [Compound 7] | only moderately reduced | more than 50% | negative shift in compound-mixed samples | soluble in 5% DMSO | EC50 (AGS; 100 ng/ml bFGF): 4.66 µM; EC50 (SKOV3; SK-OV-3, 100 ng/ml bFGF): 4.5 µM; IC50 (human cancer cell lines; Homo sapiens, read-out: IC50 of cell viability, all lines): < 20 µM
~1.5 | COc1ncc(C(C)NC2CC(C)(C)NC(C)(C)C2)cc1Cl (stereo not drawn) [Compound 3.3] |  |  |  |  | 
 | O=[N+]([O-])c1c(Cl)cc(O)c2c1C1C=CCC1C(c1ccc(Cl)cc1Cl)N2 (stereo not drawn) [Compound 8] |  |  | negative shift in compound-mixed samples | soluble in 5% DMSO | 
